# Test results taken from ChEMBL document CHEMBL3885881, “DrugMatrix”.
# Species: Rattus norvegicus
# Assay: DrugMatrix - Regimen: Daily Repeat
# Format: toxicity, organism-based, Sprague-Dawley
# Set-up: regimen Daily Repeat, gender Male, age 6-8 weeks
# Conditions: in vivo, po, route oral GAVAGE, vehicle 100 % WATER; for ABSOLUTE BASOPHIL / ABSOLUTE EOSINOPHIL / ABSOLUTE LYMPHOCYTE / ABSOLUTE MONOCYTE / ABSOLUTE SEGMENTED NEUTROPHIL / BASOPHIL / EOSINOPHIL / ERYTHROCYTE COUNT / HEMATOCRIT / HEMOGLOBIN / LEUKOCYTE COUNT / LYMPHOCYTE / MEAN CORPUSCULAR HEMOGLOBIN / MEAN CORPUSCULAR HEMOGLOBIN CONCENTRATION / MEAN CORPUSCULAR VOLUME / MONOCYTE / NEUTROPHIL / NUCLEATED RED BLOOD CELLS / PLATELET COUNT: tissue Blood; for ALANINE AMINOTRANSFERASE / ALBUMIN / ALKALINE PHOSPHATASE / ASPARTATE AMINOTRANSFERASE / BLOOD UREA NITROGEN / CARBON DIOXIDE / CHLORIDE / CHOLESTEROL / CREATINE PHOSPHOKINASE / CREATININE / GLUCOSE / LACTATE DEHYDROGENASE / LIPASE / PHOSPHORUS / POTASSIUM / SODIUM / TOTAL BILIRUBIN / TOTAL PROTEIN / URIC ACID: tissue Plasma
# [1] = 25 mg/kg, 120 h, dose level High, time 5 day
# [2] = […], 72 h, dose 6.3 mg/Kg, dose level Low, time 3 day
# [3] = […], 120 h, dose 6.3 mg/Kg, dose level Low, time 5 day
compound,measurement,setting,value
O=P1(N(CCCl)CCCl)NCCCO1 (centres undefined) [CYCLOPHOSPHAMIDE ANHYDROUS],ABSOLUTE BASOPHIL,[1],0 CELLS/uL
same,ABSOLUTE EOSINOPHIL,[1],0 CELLS/uL
same,ABSOLUTE LYMPHOCYTE,[1],1111.67 CELLS/uL
same,ABSOLUTE MONOCYTE,[1],4.33 CELLS/uL
same,ABSOLUTE SEGMENTED NEUTROPHIL,[1],117.33 CELLS/uL
same,BASOPHIL,[1],0%
same,EOSINOPHIL,[1],0%
same,ERYTHROCYTE COUNT,[1],4.84 x10E6/uL
same,HEMATOCRIT,[1],29.43%
same,HEMOGLOBIN,[1],11.47 G/DL
same,LEUKOCYTE COUNT,[1],1.23 x10E3/uL
same,LYMPHOCYTE,[1],90.33%
same,MEAN CORPUSCULAR HEMOGLOBIN,[1],23.77 pg
same,MEAN CORPUSCULAR HEMOGLOBIN CONCENTRATION,[1],39 G/DL
same,MEAN CORPUSCULAR VOLUME,[1],60.93 fL
same,MONOCYTE,[1],0.33%
same,NEUTROPHIL,[1],9.33%
same,NUCLEATED RED BLOOD CELLS,[1],0 /100WBC
same,PLATELET COUNT,[1],645 x10E3/uL
same,ALANINE AMINOTRANSFERASE,[1],44.33 u/L
same,ALBUMIN,[1],3.8 G/DL
same,ALKALINE PHOSPHATASE,[1],227.67 u/L
same,ASPARTATE AMINOTRANSFERASE,[1],67.33 u/L
same,BLOOD UREA NITROGEN,[1],15.33 mg/dL
same,CARBON DIOXIDE,[1],31 mmol/L
same,CHLORIDE,[1],102.33 MEQ/L
same,CHOLESTEROL,[1],78.67 mg/dL
same,CREATINE PHOSPHOKINASE,[1],231 u/L
same,CREATININE,[1],0.16 mg/dL
same,GLUCOSE,[1],147.67 mg/dL
same,LACTATE DEHYDROGENASE,[1],83.33 u/L
same,LIPASE,[1],8.33 u/L
same,PHOSPHORUS,[1],9.97 mg/dL
same,POTASSIUM,[1],5.36 MEQ/L
same,SODIUM,[1],144.37 MEQ/L
same,TOTAL BILIRUBIN,[1],0.1 mg/dL
same,TOTAL PROTEIN,[1],5.37 G/DL
same,URIC ACID,[1],0.33 mg/dL
same,ABSOLUTE BASOPHIL,[2],0 CELLS/uL
same,ABSOLUTE EOSINOPHIL,[2],0 CELLS/uL
same,ABSOLUTE LYMPHOCYTE,[2],7172.67 CELLS/uL
same,ABSOLUTE MONOCYTE,[2],29.33 CELLS/uL
same,ABSOLUTE SEGMENTED NEUTROPHIL,[2],531.33 CELLS/uL
same,BASOPHIL,[2],0%
same,EOSINOPHIL,[2],0%
same,ERYTHROCYTE COUNT,[2],5.43 x10E6/uL
same,HEMATOCRIT,[2],33.63%
same,HEMOGLOBIN,[2],13.3 G/DL
same,LEUKOCYTE COUNT,[2],7.73 x10E3/uL
same,LYMPHOCYTE,[2],92.67%
same,MEAN CORPUSCULAR HEMOGLOBIN,[2],24.53 pg
same,MEAN CORPUSCULAR HEMOGLOBIN CONCENTRATION,[2],39.53 G/DL
same,MEAN CORPUSCULAR VOLUME,[2],62.03 fL
same,MONOCYTE,[2],0.33%
same,NEUTROPHIL,[2],7%
same,NUCLEATED RED BLOOD CELLS,[2],0 /100WBC
same,PLATELET COUNT,[2],1008 x10E3/uL
same,ALANINE AMINOTRANSFERASE,[2],63.67 u/L
same,ALBUMIN,[2],4.1 G/DL
same,ALKALINE PHOSPHATASE,[2],374 u/L
same,ASPARTATE AMINOTRANSFERASE,[2],82.67 u/L
same,BLOOD UREA NITROGEN,[2],14 mg/dL
same,CARBON DIOXIDE,[2],34.33 mmol/L
same,CHLORIDE,[2],99.5 MEQ/L
same,CHOLESTEROL,[2],93.33 mg/dL
same,CREATINE PHOSPHOKINASE,[2],214.67 u/L
same,CREATININE,[2],0.13 mg/dL
same,GLUCOSE,[2],141.67 mg/dL
same,LACTATE DEHYDROGENASE,[2],136 u/L
same,LIPASE,[2],12.67 u/L
same,PHOSPHORUS,[2],11.2 mg/dL
same,POTASSIUM,[2],5.83 MEQ/L
same,SODIUM,[2],145.15 MEQ/L
same,TOTAL BILIRUBIN,[2],0.23 mg/dL
same,TOTAL PROTEIN,[2],5.9 G/DL
same,URIC ACID,[2],0.6 mg/dL
same,ABSOLUTE BASOPHIL,[3],0 CELLS/uL
same,ABSOLUTE EOSINOPHIL,[3],11 CELLS/uL
same,ABSOLUTE LYMPHOCYTE,[3],3359 CELLS/uL
same,ABSOLUTE MONOCYTE,[3],20 CELLS/uL
same,ABSOLUTE SEGMENTED NEUTROPHIL,[3],610 CELLS/uL
same,BASOPHIL,[3],0%
same,EOSINOPHIL,[3],0.33%
same,ERYTHROCYTE COUNT,[3],5.53 x10E6/uL
same,HEMATOCRIT,[3],34.97%
same,HEMOGLOBIN,[3],13.43 G/DL
same,LEUKOCYTE COUNT,[3],4 x10E3/uL
same,LYMPHOCYTE,[3],84%
same,MEAN CORPUSCULAR HEMOGLOBIN,[3],24.37 pg
same,MEAN CORPUSCULAR HEMOGLOBIN CONCENTRATION,[3],38.43 G/DL
same,MEAN CORPUSCULAR VOLUME,[3],63.33 fL
same,MONOCYTE,[3],0.67%
same,NEUTROPHIL,[3],15%
same,NUCLEATED RED BLOOD CELLS,[3],0 /100WBC
same,PLATELET COUNT,[3],1266.67 x10E3/uL
same,ALANINE AMINOTRANSFERASE,[3],56.33 u/L
same,ALBUMIN,[3],4.03 G/DL
same,ALKALINE PHOSPHATASE,[3],346.33 u/L
same,ASPARTATE AMINOTRANSFERASE,[3],83.33 u/L
same,BLOOD UREA NITROGEN,[3],14 mg/dL
same,CARBON DIOXIDE,[3],31.33 mmol/L
same,CHLORIDE,[3],99.5 MEQ/L
same,CHOLESTEROL,[3],65.67 mg/dL
same,CREATINE PHOSPHOKINASE,[3],216.33 u/L
same,CREATININE,[3],0.2 mg/dL
same,GLUCOSE,[3],137.33 mg/dL
same,LACTATE DEHYDROGENASE,[3],136 u/L
same,LIPASE,[3],10.33 u/L
same,PHOSPHORUS,[3],10.6 mg/dL
same,POTASSIUM,[3],5.74 MEQ/L
same,SODIUM,[3],145.9 MEQ/L
same,TOTAL BILIRUBIN,[3],0.17 mg/dL
same,TOTAL PROTEIN,[3],5.9 G/DL
same,URIC ACID,[3],0.53 mg/dL
